Test results published in ChEMBL document CHEMBL5291721, “A preclinical secondary pharmacology resource illuminates target-adverse drug reaction associations of marketed drugs” (Nat Commun, 2023).

What was measured:
[1] = target: Sodium-dependent serotonin transporter (Homo sapiens, UniProt P31645)
[2] = target: cGMP-inhibited 3',5'-cyclic phosphodiesterase 3A (Homo sapiens, UniProt Q14432); assay type: functional
Glucocorticoid receptor = target: T1, Glucocorticoid receptor (Homo sapiens, UniProt P04150)
T1 sequence (P04150 whole entry): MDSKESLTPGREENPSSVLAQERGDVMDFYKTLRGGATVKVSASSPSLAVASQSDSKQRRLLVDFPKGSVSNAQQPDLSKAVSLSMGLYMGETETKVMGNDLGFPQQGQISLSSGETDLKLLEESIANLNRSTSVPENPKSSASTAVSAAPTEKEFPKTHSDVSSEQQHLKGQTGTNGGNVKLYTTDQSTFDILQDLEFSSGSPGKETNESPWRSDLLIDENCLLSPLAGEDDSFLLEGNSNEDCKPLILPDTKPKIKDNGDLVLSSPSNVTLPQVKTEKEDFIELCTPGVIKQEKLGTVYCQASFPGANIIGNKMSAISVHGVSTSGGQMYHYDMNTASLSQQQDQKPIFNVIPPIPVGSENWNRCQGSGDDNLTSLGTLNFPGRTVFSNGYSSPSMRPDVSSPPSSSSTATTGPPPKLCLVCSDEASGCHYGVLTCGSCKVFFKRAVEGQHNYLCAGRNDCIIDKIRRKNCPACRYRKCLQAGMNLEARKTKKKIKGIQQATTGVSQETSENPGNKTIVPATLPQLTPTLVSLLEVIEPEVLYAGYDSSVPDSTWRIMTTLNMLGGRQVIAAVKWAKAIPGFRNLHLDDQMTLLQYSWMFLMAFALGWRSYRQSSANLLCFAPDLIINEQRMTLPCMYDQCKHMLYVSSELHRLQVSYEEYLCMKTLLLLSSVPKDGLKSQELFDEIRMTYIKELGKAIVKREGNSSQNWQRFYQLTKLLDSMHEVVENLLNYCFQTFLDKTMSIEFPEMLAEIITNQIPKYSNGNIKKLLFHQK

[3] = target: T2, 5-hydroxytryptamine receptor 3A (Homo sapiens, UniProt P46098); assay type: functional
T2 sequence (P46098 whole entry): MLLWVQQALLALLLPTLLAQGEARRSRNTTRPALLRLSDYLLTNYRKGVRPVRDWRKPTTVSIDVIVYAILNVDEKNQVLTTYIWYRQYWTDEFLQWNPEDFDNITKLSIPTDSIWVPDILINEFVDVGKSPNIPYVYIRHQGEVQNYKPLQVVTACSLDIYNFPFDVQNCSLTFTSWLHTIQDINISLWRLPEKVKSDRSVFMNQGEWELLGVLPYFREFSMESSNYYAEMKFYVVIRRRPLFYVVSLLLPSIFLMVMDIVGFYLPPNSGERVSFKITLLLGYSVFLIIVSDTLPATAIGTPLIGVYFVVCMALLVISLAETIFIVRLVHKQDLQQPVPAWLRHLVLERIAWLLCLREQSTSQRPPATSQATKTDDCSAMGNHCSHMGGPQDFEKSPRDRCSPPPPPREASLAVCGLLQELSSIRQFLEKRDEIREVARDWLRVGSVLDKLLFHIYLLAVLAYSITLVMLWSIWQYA

[4] = target: Delta-type opioid receptor (Homo sapiens, UniProt P41143)
Progesterone receptor = target: T3, Progesterone receptor (Homo sapiens, UniProt P06401); assay type: functional
T3 sequence (P06401 whole entry): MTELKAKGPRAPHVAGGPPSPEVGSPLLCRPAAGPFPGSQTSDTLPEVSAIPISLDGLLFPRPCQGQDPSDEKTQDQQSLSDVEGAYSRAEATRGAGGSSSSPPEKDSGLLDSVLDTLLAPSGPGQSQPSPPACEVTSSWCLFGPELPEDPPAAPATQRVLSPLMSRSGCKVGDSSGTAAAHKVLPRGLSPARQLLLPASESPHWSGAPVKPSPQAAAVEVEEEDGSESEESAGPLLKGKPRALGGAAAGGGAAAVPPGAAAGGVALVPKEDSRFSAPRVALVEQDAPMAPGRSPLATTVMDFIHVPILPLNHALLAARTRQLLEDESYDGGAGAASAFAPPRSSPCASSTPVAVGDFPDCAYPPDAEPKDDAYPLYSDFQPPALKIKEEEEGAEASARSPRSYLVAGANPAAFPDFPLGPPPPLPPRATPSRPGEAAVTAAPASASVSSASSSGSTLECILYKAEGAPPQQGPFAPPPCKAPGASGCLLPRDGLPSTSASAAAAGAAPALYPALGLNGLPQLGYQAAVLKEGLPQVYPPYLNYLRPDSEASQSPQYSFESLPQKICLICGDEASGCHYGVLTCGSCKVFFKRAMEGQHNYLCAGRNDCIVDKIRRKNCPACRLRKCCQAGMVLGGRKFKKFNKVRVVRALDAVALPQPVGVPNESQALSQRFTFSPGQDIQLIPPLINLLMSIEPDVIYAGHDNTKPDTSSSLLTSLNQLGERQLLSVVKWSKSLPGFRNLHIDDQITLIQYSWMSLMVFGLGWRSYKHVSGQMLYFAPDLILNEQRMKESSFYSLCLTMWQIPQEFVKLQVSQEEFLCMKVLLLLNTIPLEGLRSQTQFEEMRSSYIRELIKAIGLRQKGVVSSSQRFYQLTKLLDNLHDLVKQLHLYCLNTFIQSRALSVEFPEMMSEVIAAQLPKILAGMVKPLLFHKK

[5] = target: T4, 5-hydroxytryptamine receptor 2C (Homo sapiens, UniProt P28335)
T4 sequence (P28335 whole entry): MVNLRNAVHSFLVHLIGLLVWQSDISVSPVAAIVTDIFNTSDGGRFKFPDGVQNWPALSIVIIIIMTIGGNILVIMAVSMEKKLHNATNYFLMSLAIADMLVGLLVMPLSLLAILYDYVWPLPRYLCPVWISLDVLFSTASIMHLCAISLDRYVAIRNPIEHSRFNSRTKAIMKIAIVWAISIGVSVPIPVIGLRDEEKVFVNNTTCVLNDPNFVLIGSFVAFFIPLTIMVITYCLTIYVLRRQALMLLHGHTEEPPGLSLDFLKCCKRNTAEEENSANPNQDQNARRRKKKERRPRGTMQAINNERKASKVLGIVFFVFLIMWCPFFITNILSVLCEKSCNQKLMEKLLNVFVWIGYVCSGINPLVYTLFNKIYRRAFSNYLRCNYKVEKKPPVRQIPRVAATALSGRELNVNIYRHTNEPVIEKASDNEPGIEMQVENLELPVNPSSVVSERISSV

Histamine H2 receptor = Histamine H2 receptor (Homo sapiens, UniProt P25021); assay type: functional, cell-based
Further: assay procedure not described here.

Chain of Sodium-dependent serotonin transporter (P31645 whole entry): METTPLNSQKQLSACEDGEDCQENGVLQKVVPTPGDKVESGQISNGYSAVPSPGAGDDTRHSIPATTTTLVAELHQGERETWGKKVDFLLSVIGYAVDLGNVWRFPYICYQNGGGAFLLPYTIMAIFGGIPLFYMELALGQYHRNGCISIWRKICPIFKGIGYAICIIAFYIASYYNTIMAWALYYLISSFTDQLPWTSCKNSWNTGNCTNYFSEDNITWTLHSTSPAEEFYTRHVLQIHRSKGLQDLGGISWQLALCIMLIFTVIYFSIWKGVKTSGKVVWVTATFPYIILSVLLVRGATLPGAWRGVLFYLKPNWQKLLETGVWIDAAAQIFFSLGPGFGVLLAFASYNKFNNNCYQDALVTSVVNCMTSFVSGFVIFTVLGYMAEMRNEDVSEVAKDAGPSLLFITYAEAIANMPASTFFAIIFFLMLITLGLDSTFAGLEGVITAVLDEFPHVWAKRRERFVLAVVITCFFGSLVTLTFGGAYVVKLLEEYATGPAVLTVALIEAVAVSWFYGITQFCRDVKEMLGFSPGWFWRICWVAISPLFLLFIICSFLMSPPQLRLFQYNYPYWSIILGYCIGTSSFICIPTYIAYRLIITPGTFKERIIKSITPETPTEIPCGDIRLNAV
Chain of cGMP-inhibited 3',5'-cyclic phosphodiesterase 3A (Q14432 whole entry): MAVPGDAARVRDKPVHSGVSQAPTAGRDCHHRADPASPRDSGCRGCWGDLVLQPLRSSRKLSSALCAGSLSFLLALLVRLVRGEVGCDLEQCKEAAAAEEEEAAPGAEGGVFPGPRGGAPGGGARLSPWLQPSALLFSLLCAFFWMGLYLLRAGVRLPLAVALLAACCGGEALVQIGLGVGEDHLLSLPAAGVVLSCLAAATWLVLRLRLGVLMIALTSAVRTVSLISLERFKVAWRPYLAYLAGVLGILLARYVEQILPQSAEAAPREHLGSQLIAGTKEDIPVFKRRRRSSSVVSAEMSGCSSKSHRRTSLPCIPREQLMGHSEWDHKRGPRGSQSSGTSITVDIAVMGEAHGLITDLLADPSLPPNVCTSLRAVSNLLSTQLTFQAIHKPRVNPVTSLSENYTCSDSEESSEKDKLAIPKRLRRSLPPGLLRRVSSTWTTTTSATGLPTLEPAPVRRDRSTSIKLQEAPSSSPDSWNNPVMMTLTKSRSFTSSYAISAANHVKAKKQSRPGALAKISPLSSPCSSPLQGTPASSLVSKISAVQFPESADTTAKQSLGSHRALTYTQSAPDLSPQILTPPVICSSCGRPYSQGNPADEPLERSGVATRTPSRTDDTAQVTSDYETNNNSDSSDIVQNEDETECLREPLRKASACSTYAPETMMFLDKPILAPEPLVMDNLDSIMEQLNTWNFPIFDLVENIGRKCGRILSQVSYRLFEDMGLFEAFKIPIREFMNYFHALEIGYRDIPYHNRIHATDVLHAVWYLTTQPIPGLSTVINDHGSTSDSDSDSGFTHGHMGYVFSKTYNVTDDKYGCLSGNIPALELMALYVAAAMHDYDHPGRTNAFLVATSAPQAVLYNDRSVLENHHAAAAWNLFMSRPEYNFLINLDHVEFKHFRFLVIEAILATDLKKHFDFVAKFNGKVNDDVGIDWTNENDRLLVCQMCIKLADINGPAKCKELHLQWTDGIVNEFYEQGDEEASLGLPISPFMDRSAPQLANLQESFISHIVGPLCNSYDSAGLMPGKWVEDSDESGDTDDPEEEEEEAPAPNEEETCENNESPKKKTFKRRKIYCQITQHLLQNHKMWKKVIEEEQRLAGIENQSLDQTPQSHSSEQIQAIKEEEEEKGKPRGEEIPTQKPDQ
Chain of Histamine H2 receptor (P25021 whole entry): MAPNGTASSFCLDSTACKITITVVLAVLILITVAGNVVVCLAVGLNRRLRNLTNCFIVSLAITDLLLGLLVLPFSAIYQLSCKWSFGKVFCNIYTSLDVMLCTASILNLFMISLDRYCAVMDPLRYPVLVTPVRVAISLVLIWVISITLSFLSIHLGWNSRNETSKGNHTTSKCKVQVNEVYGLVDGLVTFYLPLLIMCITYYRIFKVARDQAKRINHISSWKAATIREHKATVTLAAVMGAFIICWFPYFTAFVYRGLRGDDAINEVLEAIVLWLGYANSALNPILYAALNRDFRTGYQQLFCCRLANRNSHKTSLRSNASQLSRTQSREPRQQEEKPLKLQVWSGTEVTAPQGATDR
Chain of Delta-type opioid receptor (P41143 whole entry): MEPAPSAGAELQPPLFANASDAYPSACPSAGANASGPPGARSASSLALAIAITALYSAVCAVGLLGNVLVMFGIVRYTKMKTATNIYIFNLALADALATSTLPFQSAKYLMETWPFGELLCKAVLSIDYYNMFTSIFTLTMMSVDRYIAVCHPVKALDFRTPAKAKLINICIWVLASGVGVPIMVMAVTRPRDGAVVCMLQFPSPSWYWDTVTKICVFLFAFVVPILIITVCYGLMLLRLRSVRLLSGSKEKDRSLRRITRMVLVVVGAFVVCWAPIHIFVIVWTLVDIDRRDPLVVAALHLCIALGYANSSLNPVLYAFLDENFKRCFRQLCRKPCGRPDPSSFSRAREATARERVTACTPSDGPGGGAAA

Structure (SMILES)	AC50 [1] [µM]	other results
Cc1cc2c(cc1S(N)(=O)=O)S(=O)(=O)CCC2	> 30	–
CC1(C)S[C@@H]2[C@H](/N=C/N3CCCCCC3)C(=O)N2[C@H]1C(=O)O [AMDINOCILLIN]	> 30	–
CC(=O)[C@]1(N)Cc2c(O)c3c(c(O)c2[C@@H](O[C@H]2C[C@H](O)[C@H](O)CO2)C1)C(=O)c1ccccc1C3=O [AMRUBICIN]	> 30	–
NC(=O)[C@@H]1CC[C@@H]2CN1C(=O)N2OS(=O)(=O)O [AVIBACTAM]	> 30	–
CC(C)(C)NC(=O)N[C@H](C(=O)N1C[C@H]2[C@@H]([C@H]1C(=O)NC(CC1CCC1)C(=O)C(N)=O)C2(C)C)C(C)(C)C (stereo not given in full) [BOCEPREVIR]	> 30	–
Cc1ncc2c(c1O)COC2c1ccc(Cl)cc1 (stereo not given) [CICLETANINE]	> 30	–
Cc1cn([C@H]2O[C@@H](CO)[C@H](O)[C@H]2F)c(=O)[nH]c1=O [CLEVUDINE]	> 30	–
N#Cc1ccc(Oc2ccc3c(c2)COB3O)cc1 [CRISABOROLE]	> 30	AC50 [2]: > 30 µM
CC(=O)[C@H]1CC[C@H]2[C@@H]3C=CC4=CC(=O)CC[C@@]4(C)[C@@H]3CC[C@]12C [DYDROGESTERONE]	> 30	–
CC(=O)O[C@H]1Cc2ccccc2N(C(N)=O)c2ccccc21 [ESLICARBAZEPINE ACETATE]	> 30	–
Cc1ccc(S(=O)(=O)NC(=O)NC2CCCCC2)cc1 [GLYCYCLAMIDE]	> 30	–
CN1CCCN(C(c2ccccc2)c2ccc(Cl)cc2)CC1 (stereo not given) [HOMOCHLORCYCLIZINE]	2.98	–
CC(=O)OCC(=O)[C@@]1(O)CC[C@H]2[C@@H]3CCC4=CC(=O)CC[C@]4(C)[C@H]3[C@@H](O)C[C@@]21C [HYDROCORTISONE ACETATE]	> 30	–
CC(COc1ccccc1)NC(C)C(O)c1ccc(O)cc1 (stereo not given) [ISOXSUPRINE]	5.55	–
O=C(CCC/C=C\C[C@@H]1[C@@H](CC[C@@H](O)CCc2ccccc2)[C@H](O)C[C@@H]1O)OCCCCO[N+](=O)[O-] [LATANOPROSTENE BUNOD]	> 30	–
Cc1oc(=O)oc1COC(=O)[C@@H]1N2C(=O)[C@@H](NC(=O)[C@H](N)c3ccccc3)[C@H]2SC1(C)C [LENAMPICILLIN]	> 30	–

Structure (SMILES)	AC50 [1] [µM]	other results
COc1ccc(OC)c(C(O)C(C)N)c1 (stereo not given) [METHOXAMINE]	> 30	–
CC1(CCN2CCCCC2)C(=O)CCc2ccccc21 (stereo not given) [NEPINALONE]	> 30	–
COC(=O)C[C@](O)(CCCC(C)(C)O)C(=O)O[C@@H]1C(OC)=C[C@]23CCCN2CCc2cc4c(cc2[C@H]13)OCO4 [OMACETAXINE MEPESUCCINATE]	> 30	–
COc1cccc(C(=O)CCN[C@@H](C)[C@H](O)c2ccccc2)c1 [OXYFEDRINE]	4.77	–
CC[N+](C)(CC)CCOC(=O)C(O)(c1ccccc1)C1CCCCC1 (stereo not given) [OXYPHENONIUM]	> 30	–
C[C@@H]1C[C@H]2[C@@H]3C[C@H](F)C4=CC(=O)C=C[C@]4(C)[C@H]3[C@@H](O)C[C@]2(C)[C@@]1(O)C(=O)CO [PARAMETHASONE]	> 30	–
CCC[C@H](N[C@@H](C)C(=O)N1[C@H](C(=O)O)C[C@@H]2CCCC[C@@H]21)C(=O)OCC [PERINDOPRIL]	> 30	–
N[C@@H](Cc1ccccc1)C(=O)O [PHENYLALANINE]	> 30	–
CCCn1cnc2c1c(=O)n(CCCCC(C)=O)c(=O)n2C [PROPENTOFYLLINE]	> 30	–
Clc1ccc(C(Cn2ccnc2)OCc2csc3c(Cl)cccc23)c(Cl)c1 (stereo not given) [SERTACONAZOLE]	2.89	–
CC(OCCN1CCCCCC1)(c1ccccc1)c1ccc(Cl)cc1 (stereo not given) [SETASTINE]	21	–
COc1cc(C)c2c(Oc3cccc(C(F)(F)F)c3)c(OC)cc(NC(C)CCCN)c2n1 (stereo not given) [TAFENOQUINE]	10.3	–
O=S1(=O)CCN(CN2CCS(=O)(=O)NC2)CN1 [TAUROLIDINE]	> 30	AC50 (Glucocorticoid receptor): > 10 µM; AC50 [3]: > 30 µM; AC50 [4]: > 30 µM; AC50 (Progesterone receptor): > 30 µM; AC50 [2]: > 30 µM; AC50 [5]: > 30 µM; AC50 (Histamine H2 receptor): > 30 µM
CCCSc1nc(N[C@@H]2C[C@H]2c2ccc(F)c(F)c2)c2nnn([C@@H]3C[C@H](OCCO)[C@@H](O)[C@H]3O)c2n1 [TICAGRELOR]	> 30	–
c1ccc2c(SC3=NCCN3)c[nH]c2c1 [TINAZOLINE]	> 30	–
COc1ccc2c(C(=S)N(C)CC(=O)O)cccc2c1C(F)(F)F [TOLRESTAT]	> 30	–
